According to patent US20080045537A1, “Chemical Compounds” (priority 2004, published 2008):
Like-named read-outs stand apart in the source and are kept apart here.

What was measured:
Type in all cases: cell-based
human CXCR4 = molecular target: T1, human CXCR4 (Homo sapiens, UniProt P61073); test: Functional FLIPR assay (block of SDF-1 alpha induced [Ca2+]i change); conditions: HEK-293 cells with human CXCR4 BacMam and Gqi5 BacMam; antagonism of SDF-1 alpha; read-out: Functional assay (pIC50) (converted)
T1 construct: expressed in transfected cells; host or cells: HEK-293 cells (stably expressing human macrophage scavenging receptor) transduced with human CXCR4 BacMam and Gqi5 BacMam baculoviruses
T1 sequence (P61073 whole entry): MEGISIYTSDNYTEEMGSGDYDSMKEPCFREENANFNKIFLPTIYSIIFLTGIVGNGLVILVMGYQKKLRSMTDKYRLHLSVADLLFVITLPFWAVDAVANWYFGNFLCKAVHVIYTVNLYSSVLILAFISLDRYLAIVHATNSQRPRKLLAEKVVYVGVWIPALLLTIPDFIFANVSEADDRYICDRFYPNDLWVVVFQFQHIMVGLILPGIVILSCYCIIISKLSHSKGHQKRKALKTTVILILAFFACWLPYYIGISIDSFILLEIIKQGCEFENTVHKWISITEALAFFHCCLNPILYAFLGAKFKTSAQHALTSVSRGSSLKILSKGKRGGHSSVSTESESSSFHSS
Protocol: Human embryonic kidney (HEK-293) cells were maintained and harvested as described above. Cells were plated in 96-well, black clear bottom, poly-lysine coated plates at a concentration of 40,000 cells per well in a final volume of 100 ul containing human CXCR4BacMam (MOI=25) and Gqi5 BacMam (MOI=12.5). The cells were incubated at 37° C., 5% CO2, 95% humidity for 24 h to allow for protein expression.
After the required incubation time the cells were washed once with 50 ul of fresh serum-free DMEM/F12 media containing probenicid. 50 ul of dye solution was then added to the cells (Calcium Plus Assay Kit Dye; Molecular Devices) was dissolved in 200 ml of the above probenicid/BSA containing media and incubated for 1 h. Cell plates were transferred to a Fluorometric Imaging Plate Reader (FLIPR). Upon addition the effect of the compounds on the change in [Ca^2+]i was examined to determine if the compounds were agonists or antagonists (ability to block SDF-1 alpha activity) at the CXCR4 receptor. IC50 values are determined and pKb values are calculated using the Leff and Dougall equation: KB=IC50/((2+([agonist]/EC50ˆb)ˆ1/b−1) Where IC50 is that defined by the antagonist concentration-response curve [agonist] is the EC80 concentration of agonist used EC50 is that defined by the agonist concentration-response curve b is the slope of the agonist concentration-response curve.

[1] = tested on: HIV-1 gp160 (from the HXB2 HIV strain); test: Cell/cell fusion assay (HEK-293 expressing HIV-1 tat, rev, gp160 with HOS hCXCR4/hCCR5/hCD4/pHIV-LTR-luciferase cells); conditions: Human immunodeficiency virus 1, HXB2, HEK293, 24 h, read-out: Fusion assay (pIC50), luciferase readout after 24 h (converted)
From the text: The complete coding sequences of HIV-1 tat (GenBank Accession No. X07861) and rev (GenBank Accession No. M34378) were cloned into pcDNA3.1 expression vectors containing G418 and hygromycin resistance genes, respectively. The complete coding sequence of the HIV-1 (HXB2 strain) gp160 envelope gene (nucleotide bases 6225-8795 of GenBank Accession No. K03455) was cloned into plasmid pCRII-TOPO. The three HIV genes were additionally inserted into the baculovirus shuttle vector, pFastBacMam1, under the transcriptional control of the CMV promoter. A construction of the pHIV-I LTR containing mutated NFkB sequences linked to the luciferase reporter gene was prepared by digesting pcDNA3.1, containing the G418 resistance gene, with Nru I and Bam HI to remove the CMV promoter. LTR-luc was then cloned into the Nru I/Bam HI sites of the plasmid vector. Plasmid preparations were performed after the plasmids were amplified in Escherichia coli strain DH5-alpha. The fidelity of the inserted sequences was confirmed by double-strand nucleotide sequencing using an ABI Prism Model 377 automated sequencer.
Recombinant BacMam baculoviruses were constructed from pFastBacMam shuttle plasmids by using the bacterial cell-based Bac-to-Bac system. Viruses were propagated in Sf9 (Spodoptera frugiperda) cells cultured in Hink's TNM-FH Insect media supplemented with 10% (v/v) fetal bovine serum and 0.1% (v/v) pluronic F-68 according to established protocols.
Human osteosarcoma (HOS) cells that naturally express human CXCR4 were transfected with human CCR5, human CD4 and the pHIV-LTR-luciferase plasmid using FuGENE 6 transfection reagent. Single cells were isolated and grown under selection condition in order to generate a stable HOS (hCXCR4/hCCR5/hCD4/pHIV-LTR-luciferase) clonal cell line. The cells were maintained in Dulbeccos modified Eagles media supplemented with 10% fetal calf serum (FCS), G418 (400 ug/ml), puromycin (1 ug/ml), mycophenolic acid (40 ug/ml), xanthine (250 ug/ml) and hypoxanthine (13.5 ug/ml) to maintain a selection pressure for cells expressing the LTR-luciferase, hCCR5 and hCD4, respectively. Human embryonic kidney (HEK-293) cells stably transfected to express the human macrophage scavenging receptor (Class A, type 1; GenBank Accession No. D90187), were maintained in DMEM/F-12 media (1:1) supplemented with 10% FCS and 1.5 ug/ml puromycin. The expression of this receptor by the HEK-293 cells enhances their ability to stick to tissue culture treated plasticware.
HEK-293 cells were harvested using enzyme-free cell dissociation buffer. The cells were resuspended in DMEM/F-12 media supplemented with 10% FCS and 1.5 ug/ml and counted. Tranductions were performed by direct addition of BacMam baculovirus containing insect cell media to cells. The cells were simultaneously transduced with BacMam baculovirus expressing HIV-1 tat, HIV-1 rev and HIV-1 gp160 (from the HXB2 HIV strain). Routinely an MOI of 10 of each virus was added to the media containing the cells. 2 mM butyric acid was also added to the cells at this stage to increase protein expression in transduced cells. The cells were subsequently mixed and seeded into a flask at 30 million cells per T225. The cells were incubated at 37° C., 5% CO2, 95% humidity for 24 h to allow for protein expression.
HEK and HOS cells were harvested in DMEM/F-12 media containing 2% FCS and DMEM media containing 2% FCS, respectively, with no selection agents added. Compounds were plated as 1 ul spots in 100% DMSO on a 96-well CulturPlate plates. HOS cells (50 ul) were added first to the wells, followed immediately by the HEK cells (50 ul). The final concentration of each cell type was 20,000 cells per well. Following these additions, the cells were returned to a tissue culture incubator (37° C.; 5% CO2/95% air) for an additional 24 h.
Following the 24 h incubation, total cellular luciferase activity was measured using the LucLite Plus assay kit (Packard, Meridien, Conn.). […]

[2] = Compound cytotoxicity in the absence of virus addition (CellTiter-Glo); conditions: human; non-infected HOS cultures; read-out: Cytotox (pIC50) (converted)
Protocol: Compounds were profiled against two HIV-1 viruses, the M-tropic (CCR5 utilizing) Ba-L strain and the T-tropic (CXCR4 utilizing) IIIB strain. Both viruses were propagated in human peripheral blood lymphocytes. Compounds were tested for there ability to block infection of the HOS cell line (expressing hCXCR4/hCCR5/hCD4/pHIV-LTR-luciferase) by either HIV-1 Ba-L or HIV-1 IIIB. Compound cytotoxicity was also examined in the absence of virus addition.
HOS cells (expressing hCXCR4/hCCR5/hCD4/pHIV-LTR-luciferase) were harvested and diluted in Dulbeccos modified Eagles media supplemented with 2% FCS and non-essential amino acid to a concentration of 60,000 cells/ml. The cells were plated into 96-well plates (100 ul per well) and the plates were placed in a tissue culture incubator (37° C.; 5% CO2/95% air) for a period of 24 h.
Subsequently, 50 ul of the desired drug solution (4 times the final concentration) was added to each well and the plates were returned to the tissue culture incubator (37° C.; 5% CO2/95% air) for 1 h. Following this incubation 50 ul of diluted virus was added to each well (approximately 2 million RLU per well of virus). The plates were returned to the tissue culture incubator (37° C.; 5% CO2/95% air) and were incubated for a further 96 h.
Following this incubation the endpoint for the virally infected cultures was quantified following addition of Steady-Glo Luciferase assay system reagent (Promega, Madison, Wis.). Cell viability or non-infected cultures was measured using a CellTiter-Glo luminescent cell viability assay system (Promega, Madison, Wis.). All luminescent readouts are performed on a Topcount luminescence detector (Packard, Meridien, Conn.).

[3] = tested on: HIV-1 IIIB (T-tropic, CXCR4 utilizing); test: HOS HIV-1 infectivity assay
Procedure, shortened: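 Cytotoxicity was measured by CellTiter-Glo in virus-free cultures, while antiviral activity used Steady-Glo luciferase after 96 h infection with T-tropic IIIB virus (~2 million RLU/well). Both used HOS hCXCR4/hCCR5/hCD4/pHIV-LTR-luciferase cells in 2% FCS DMEM, with compound added 1 h before virus.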

[4] = Human immunodeficiency virus 1, IIIB, as determined by the infectivity assay, strain not stated in Table 2, read-out: Activity Level
[5] = Human immunodeficiency virus 1, HIV-1 IIIB, HOS cells, 96 h, luciferase readout, read-out: HOS (3B)

Compound: CN(Cc1nc2cc(CN)ccc2[nH]1)C1CCCc2cccnc21 (stereo not shown) [Example 17, N-{[5-(Aminomethyl)-1H-benzimidazol-2-yl]methyl}-N-methyl-5,6,7,8-tetrahydro-8-quinolinamine]
- IC50 (human CXCR4): 0.257 µM
- IC50 [1]: 1.29 µM
- IC50 at 96 h [2]: > 100 µM
- IC50 [3, 4]: 0.5 to 10 µM
- IC50 [3, 5]: 1.36 µM

Compound: CN(Cc1nc2cc(CNCCCN)ccc2[nH]1)C1CCCc2cccnc21 (stereo not shown) [Example 18, N-[(2-{[Methyl(5,6,7,8-tetrahydro-8-quinolinyl)amino]methyl}-1H-benzimidazol-5-yl)methyl]-1,3-propanediamine]
- IC50 (human CXCR4): 0.151 µM
- IC50 [1]: 0.468 µM
- IC50 at 96 h [2]: > 100 µM
- IC50 [3, 4]: 0.1 to 0.5 µM
- IC50 [3, 5]: 0.16 µM

Compound: CN(Cc1nc2cc(CNCC3CCNCC3)ccc2[nH]1)C1CCCc2cccnc21 (stereo not shown) [Example 19, N-Methyl-N-[(5-{[(4-piperidinylmethyl)amino]methyl}-1H-benzimidazol-2-yl)methyl]-5,6,7,8-tetrahydro-8-quinolinamine]
- IC50 (human CXCR4): 0.251 µM
- IC50 [1]: 0.501 µM
- IC50 at 96 h [2]: > 100 µM
- IC50 [3, 4]: 0.1 to 0.5 µM
- IC50 [3, 5]: 0.167 µM

Compound: CN(Cc1nc2cc(C(=O)NCc3ccc(CN)cc3)ccc2[nH]1)C1CCCc2cccnc21 (stereo not shown) [Example 20, N-{[4-(Aminomethyl)phenyl]methyl}-2-{[methyl(5,6,7,8-tetrahydro-8-quinolinyl)amino]methyl}-1H-benzimidazole-5-carboxamide]
- IC50 (human CXCR4): > 100 µM
- IC50 [1]: 5.62 µM
- IC50 at 96 h [2]: > 100 µM
- IC50 [3, 4]: 0.5 to 10 µM
- IC50 [3, 5]: 2.35 µM

Compound: CN(Cc1nc2cccc(C(=O)N3CCNCC3)c2[nH]1)C1CCCc2cccnc21 (stereo not shown) [Example 21, N-Methyl-N-{[4-(1-piperazinylcarbonyl)-1H-benzimidazol-2-yl]methyl}-5,6,7,8-tetrahydro-8-quinolinamine]
- IC50 (human CXCR4): 0.0158 µM
- IC50 [1]: 0.0603 µM
- IC50 at 96 h [2]: > 100 µM
- IC50 [3, 4]: < 0.1 µM
- IC50 [3, 5]: 0.046 µM

Compound: CN1CCN(C(=O)c2cccc3[nH]c(CN(C)C4CCCc5cccnc54)nc23)CC1 (stereo not shown) [Example 22, N-Methyl-N-({4-[(4-methyl-1-piperazinyl)carbonyl]-1H-benzimidazol-2-yl}methyl)-5,6,7,8-tetrahydro-8-quinolinamine]
- IC50 (human CXCR4): 0.17 µM
- IC50 [1]: 1.05 µM
- IC50 at 96 h [2]: > 100 µM
- IC50 [3, 4]: 0.1 to 0.5 µM
- IC50 [3, 5]: 0.331 µM

Compound: CN(Cc1nc2cccc(C(=O)NCCc3cnc[nH]3)c2[nH]1)C1CCCc2cccnc21 (stereo not shown) [Example 23, N-[2-(1H-Imidazol-4-yl)ethyl]-2-{[methyl(5,6,7,8-tetrahydro-8-quinolinyl)amino]methyl}-1H-benzimidazole-4-carboxamide]
- IC50 (human CXCR4): 0.0135 µM
- IC50 [1]: 0.158 µM
- IC50 at 96 h [2]: > 100 µM
- IC50 [3, 4]: < 0.1 µM
- IC50 [3, 5]: 0.018 µM

Compound: CN(Cc1nc2c(C(=O)NCCc3cn(C)cn3)cccc2[nH]1)C1CCCc2cccnc21 (stereo not shown) [Example 24, N-[2-(1-Methyl-1H-imidazol-4-yl)ethyl]-2-{[methyl(5,6,7,8-tetrahydro-8-quinolinyl)amino]methyl}-1H-benzimidazole-4-carboxamide]
- IC50 (human CXCR4): 0.0123 µM
- IC50 [1]: 0.145 µM
- IC50 at 96 h [2]: > 100 µM
- IC50 [3, 4]: < 0.1 µM
- IC50 [3, 5]: 0.022 µM

Compound: CN(Cc1nc2c(C(N)=O)cccc2[nH]1)C1CCCc2cccnc21 (stereo not shown) [Example 25, 2-{[Methyl(5,6,7,8-tetrahydro-8-quinolinyl)amino]methyl}-1H-benzimidazole-4-carboxamide]
- IC50 (human CXCR4): 0.174 µM
- IC50 [1]: 0.275 µM
- IC50 at 96 h [2]: > 100 µM
- IC50 [3, 4]: 0.1 to 0.5 µM
- IC50 [3, 5]: 0.143 µM

Compound: CN(Cc1nc2c(C(=O)NCCN)cccc2[nH]1)C1CCCc2cccnc21 (stereo not shown) [Example 26, N-(2-Aminoethyl)-2-{[methyl(5,6,7,8-tetrahydro-8-quinolinyl)amino]methyl}-1H-benzimidazole-4-carboxamide]
- IC50 (human CXCR4): 0.0209 µM
- IC50 [1]: 0.049 µM
- IC50 at 96 h [2]: > 100 µM
- IC50 [3, 4]: < 0.1 µM
- IC50 [3, 5]: 0.027 µM

Compound: CN(Cc1nc2c(C(=O)NCCCN3CCCC3)cccc2[nH]1)C1CCCc2cccnc21 (stereo not shown) [Example 28, 2-{[Methyl(5,6,7,8-tetrahydro-8-quinolinyl)amino]methyl}-N-[3-(1-pyrrolidinyl)propyl]-1H-benzimidazole-4-carboxamide]
- IC50 (human CXCR4): 0.0575 µM
- IC50 [1]: 0.148 µM
- IC50 at 96 h [2]: > 100 µM
- IC50 [3, 4]: < 0.1 µM
- IC50 [3, 5]: 0.044 µM
